“And” between values parts separate entries of the source, which are not always exact repeats. Identical values can stand only once.
Columns and labels:
[1] = test system: rice plants (transgenic Lines 26 and 29; Nt control); assay: Greenhouse herbicide tests on rice; assay type: in vivo; details: for average seed set in two transgenic lines: PURSUIT, RAPTOR, CADRE, SCEPTER at all rates tested, ARSENAL 1 to 2×; for rate at which growth of transgenic plants was slightly affected: post-emergence, fresh weight and visual observation
Text: We evaluated the response of transgenic rice to PURSUIT® imazethapyr application in the greenhouse. In this experiment, we included 2 transgenic lines and their untransformed counterpart (Nt). The transgenic lines, designated as Line 26 and 29, were T3 progeny derived from previously identified homozygous resistant transgenic plants containing the maize XI12 ahas2 gene driven by its own promoter. All seeds were pre-germinated in water for 2-3 days then grown in a planting mixture consisting of 1:1 soil and MetroMix 360 (The Scotts Company, Marysville, Ohio 43040) in 6-inch pots (2 seeds per pot) in the greenhouse and sprayed with PURSUIT® imazethapyr at 63, 125, or 250 g ai/ha. For post-emergence application, the plants were sprayed 15 days after seeding, at which time most plants had 3 leaves. For pre-emergence treatment, PURSUIT® imazethapyr was sprayed one day after seeding. Each treatment contained 20 plants and, and 3 replicates per treatment. One set of materials was not sprayed and used as control. The plants were grown in the greenhouse and harvested at maturity. The amount of PURSUIT® imazethapyr applied in this study (63, 125, or 250 g ai/ha) was close to 1, 2 or 4× field application rate for imi-resistant corn (refer to Table 3) since PURSUIT® imazethapyr is not currently labeled for use in rice fields. A custom designed belt sprayer was operated as described (Newhouse et al. 1992) for all herbicide applications. Five plants from each treatment were randomly chosen and individually measured for morphological traits. Means and standard deviations were calculated over three replications. Plant heights were measured from the base of the plant to the tip of the flag leaf 93 days after herbicide applications (DAH) and number of tillers per plant were counted 102-103 DAH. Data on number of panicles per plant and yield were collected after plants were harvested.
A total of 9 herbicides, 5 imidazolinones, two rice herbicides and ACCENT® (nicosulfuron) and CLASSIC® (clorimuron-ethyl) were applied in this study. Materials and methods were basically the same as described above, except that instead of 6″ pots, flats with 18 (3″×3″ per cell) cells were used, and 10-12 seeds were planted to one 3″×3″ cell. Ten plants were maintained in one cell in the post-emergence application. Each herbicide was sprayed at 4 different rates, 1, 2, 4, and 6×, as either pre or post-emergence applications with three replications per treatment. The name and amount of herbicide applied in this experiment and information relevant to their commercial applications are listed in Table 3. For simplicity and convenience, the lowest concentration used is referred as 1× rate, 2, 4 and 6× rates can be calculated as multiples of 1×.
To monitor plant response to various herbicides, data on fresh weight was collected. For pre-emergence applications, all plants from one cell were harvested 32 days after spraying (36-day old plants) and weighed. Twenty-nine days after herbicide application, 5 plants (44-day old plants) from each cell in the post-emergence application, were cut and weighed individually. Mean fresh weight for each treatment was calculated over three replications. The remaining 5 plants were grown in the greenhouse to maturity at which time, panicles of 3 plants were collected, and number of filled seeds and number of total kernels were counted to determine percentage of seed set.

[2] = test system: AHAS (acetohydroxyacid synthase) in extracts of Nortai, Line 26 and Line 29; assay: In vitro AHAS activity assay; assay type: biochemical, rice; details: a significant portion of the enzyme activity; compared with normal enzyme from Nortai; FIG. 2
Method: Previously published procedures were used for the extraction and in vitro assay for AHAS activity (Singh et al. 1988). Lower portions of the shoots were used as the source of plant tissue for the assay. The desalted crude extracts were used for the in vitro enzyme assays. Acetolactate produced by the enzyme was converted to acetoin, which was measured by the Westerfield assay system.
In vitro AHAS assays were performed to understand the basis of herbicide tolerance in the transgenic plants. Previously published procedure was used for the extraction and in vitro assay for AHAS activity (Singh et al. 1988). The lower portions of the shoots were used as the source of plant tissue for the assay. The desalted crude extracts were used for the in vitro enzyme assays. Acetolactate produced by the enzyme was converted to acetoin, which was measured by the Westerfield assay system (Westerfield 1945). The specific activity of AHAS was about 30% higher in Line 26 (67 nmoles/mg protein/h) and Line 29 (64 nmoles/mg protein/h) compared to the activity in Nortai (Nt) (50 nmoles/mg protein/h).

[3] = test system: 8692IT (heterozygous XI12 imi-tolerant corn line); assay: Greenhouse spray test of corn lines with imidazolinone herbicides, injury score; assay type: in vivo; details: for Score, individual plants (0 dead plants, 5 healthy plants with no injury): 16 days after treatment; for M.S.: score 0 (dead) to 5 (healthy), 16 days
[4] = test system: non-transformed Ciccio and Colosseo wheat plants; assay: Greenhouse spray test of wheat with RAPTOR imazamox; assay type: in vivo
Text: Sow seed to 3×5-cell flats at about 10 seed per cell. Grow the plants for about two weeks. On the day of spraying, water plants well and let excess water drip out. Spray plants on a belt-sprayer with the imidazolinone herbicides at desired rates. […] Resume regular water schedule three days after spraying. Closely observe the plants for the next two to four weeks. Symptoms of herbicide injury will be visible two weeks after spraying and susceptible plants will die four to six weeks later. We usually measure plant height and score the plant morphology with a 0 to 10 rating with 0 for dead plants and 10 for healthy plants with no or minimum injury.
We also analyzed T2 progeny plants from one of the best lines of 0407-1-10. T2 seeds were planted at 10 seeds per pot and two pots per line were sprayed at 0, 10, 20, 30, 40 and 50 g/ha RAPTOR® imazamox. Most plants did show an increase in resistance over non-transformed control (FIG. 6B).

[5] = 4×: PURSUIT 250, RAPTOR 160, ARSENAL 96, CADRE 400 g/ha
[6] = 8×: PURSUIT 500, RAPTOR 320, ARSENAL 192, CADRE 800 g/ha
[7] = 16×: RAPTOR 640 g/ha, ARSENAL 384 g/ha, CADRE 1.6 kg/ha

SMILES | seed set in the two transgenic lines ([1]; 4× (96 g ai/ha) and 6× (144 g ai/ha)) | average seed set in two transgenic lines [1] | effect on seed set of transgenic plants ([1]; higher rates) | rate at which growth of transgenic plants was slightly affected [1] | inhibition of AHAS activity from tolerant Line 26 and Line 29 [2] | Score, individual plants (0 dead plants, 5 healthy plants with no injury) [3, 5] | M.S. [3, 5] | Score, individual plants (0 dead plants, 5 healthy plants with no injury) [3, 6] | M.S. [3, 6] | Score, individual plants (0 dead plants, 5 healthy plants with no injury) [3, 7] | M.S. [3, 7] | fate of transgenic plants of Lines 26 and 29 ([1]; pre-emergence, 63, 125, 250 g/ha) | Score, individual plants (0 dead plants, 5 healthy plants with no injury) ([3]; 20×: PURSUIT 1.25 kg/ha) | M.S. ([3]; 20×: PURSUIT 1.25 kg/ha) | rate at which growth of both transgenic lines was affected ([1]; pre-emergence) | plant heights of Ciccio and Colosseo reduced, less than those of transformed plants ([4]; 10 g/ha) | fate of non-transformed Ciccio ([4]; 50 g/ha)
CC(C)C1(C)N=C(c2ncccc2C(=O)O)NC1=O (stereo not shown) [ARSENAL ®, imazapyr] | ≤ 20% | about 85% | severe sterility | 6 × | insensitive to inhibition | 4 | 4 | 4 (2×) and 3 (3×) | 3.4 | 4 and 3 (4×) | 3.2 |  |  |  |  |  | 
CCc1cnc(C2=NC(C)(C(C)C)C(=O)N2)c(C(=O)O)c1 (stereo not shown) [PURSUIT ®, imazethapyr] |  | about 85% |  | 6 × | insensitive to inhibition | 5 | 5 | 5 (4×) and 4 | 4.8 |  |  | survived at all rates applied | 4 (4×) and 3 | 3.8 |  |  | 
Cc1cnc(C2=NC(=O)C(C)(C(C)C)N2)c(C(=O)O)c1 (stereo not shown) [CADRE ®, imazameth] |  | about 85% |  | 6 × |  | 4 (3×) and 5 (2×) | 4.4 | 3 (3×) and 2 (2×) | 2.6 | 1 (2×) and 2 (3×) | 1.6 |  |  |  |  |  | 
COCc1cnc(C2=NC(C)(C(C)C)C(=O)N2)c(C(=O)O)c1 (stereo not shown) [RAPTOR ®, imazamox] |  | about 85% |  | 6 × |  | 4 and 3 (3×) and 2 | 3 | 3 (2×) and 2 (2×) | 2.5 | 2 (2×) and 1 and 0 (2×) | 1 |  |  |  | 6 × | 50% | caused death

Source: patent US6653529B2, “Use of the maize X112 mutant ahas 2 gene and imidazolinone herbicides for selection of transgenic monocots, maize, rice and wheat plants resistant to the imidazolinone herbicides” (BASF Aktiengesellschaft, priority 2000, dated 2003)
